Experiments:
Assay in all cases: Kinase panel study
Format in all cases: biochemical
Details in all cases: read-out: Percentage of inhibition; for inhibition at 1 µM: 1000nM; for inhibition at 10 µM: 10000nM
LRRK2 G2019S = molecular target: T1, LRRK2 G2019S (Homo sapiens, UniProt Q5S007, G2019S)
T1 construct: purchased Thermo Fisher Scientific
Summary of the method: (§1)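 Single-point inhibition data at 10 µM or 1 µM compound are shown. They were generated in ZLyte- or Adapta-format biochemical assays performed externally under standard conditions.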

TEK (Tie2) = molecular target: T2, TEK (Tie2) (Homo sapiens, UniProt Q02763)
T2 construct: purchased Thermo Fisher Scientific
Summary of the method: as §1

ADRBK2 (GRK3) = molecular target: T3, ADRBK2 (GRK3) (Homo sapiens, UniProt P35626)
T3 construct: purchased Thermo Fisher Scientific
T3 sequence (P35626 1-688): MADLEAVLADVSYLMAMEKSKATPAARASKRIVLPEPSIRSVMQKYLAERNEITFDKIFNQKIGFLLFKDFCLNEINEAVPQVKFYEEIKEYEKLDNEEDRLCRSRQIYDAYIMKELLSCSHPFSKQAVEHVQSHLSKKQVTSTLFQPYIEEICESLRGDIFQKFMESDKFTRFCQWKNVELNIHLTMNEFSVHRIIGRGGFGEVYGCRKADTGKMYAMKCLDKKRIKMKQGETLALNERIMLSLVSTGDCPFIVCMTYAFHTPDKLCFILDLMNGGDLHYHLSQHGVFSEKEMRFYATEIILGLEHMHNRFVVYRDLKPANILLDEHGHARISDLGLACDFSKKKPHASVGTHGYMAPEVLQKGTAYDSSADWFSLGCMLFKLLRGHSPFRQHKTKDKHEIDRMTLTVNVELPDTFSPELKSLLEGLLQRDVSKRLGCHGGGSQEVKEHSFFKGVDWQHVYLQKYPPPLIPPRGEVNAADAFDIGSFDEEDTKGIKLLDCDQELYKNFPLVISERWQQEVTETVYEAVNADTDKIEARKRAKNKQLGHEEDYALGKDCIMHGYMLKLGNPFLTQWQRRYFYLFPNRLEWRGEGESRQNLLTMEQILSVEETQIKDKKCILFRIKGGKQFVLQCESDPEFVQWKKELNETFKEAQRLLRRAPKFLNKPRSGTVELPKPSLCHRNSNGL
Summary of the method: as §1

NEK1 = molecular target: T4, NEK1 (Homo sapiens, UniProt Q96PY6)
T4 construct: purchased Thermo Fisher Scientific
T4 sequence (Q96PY6 1-1258): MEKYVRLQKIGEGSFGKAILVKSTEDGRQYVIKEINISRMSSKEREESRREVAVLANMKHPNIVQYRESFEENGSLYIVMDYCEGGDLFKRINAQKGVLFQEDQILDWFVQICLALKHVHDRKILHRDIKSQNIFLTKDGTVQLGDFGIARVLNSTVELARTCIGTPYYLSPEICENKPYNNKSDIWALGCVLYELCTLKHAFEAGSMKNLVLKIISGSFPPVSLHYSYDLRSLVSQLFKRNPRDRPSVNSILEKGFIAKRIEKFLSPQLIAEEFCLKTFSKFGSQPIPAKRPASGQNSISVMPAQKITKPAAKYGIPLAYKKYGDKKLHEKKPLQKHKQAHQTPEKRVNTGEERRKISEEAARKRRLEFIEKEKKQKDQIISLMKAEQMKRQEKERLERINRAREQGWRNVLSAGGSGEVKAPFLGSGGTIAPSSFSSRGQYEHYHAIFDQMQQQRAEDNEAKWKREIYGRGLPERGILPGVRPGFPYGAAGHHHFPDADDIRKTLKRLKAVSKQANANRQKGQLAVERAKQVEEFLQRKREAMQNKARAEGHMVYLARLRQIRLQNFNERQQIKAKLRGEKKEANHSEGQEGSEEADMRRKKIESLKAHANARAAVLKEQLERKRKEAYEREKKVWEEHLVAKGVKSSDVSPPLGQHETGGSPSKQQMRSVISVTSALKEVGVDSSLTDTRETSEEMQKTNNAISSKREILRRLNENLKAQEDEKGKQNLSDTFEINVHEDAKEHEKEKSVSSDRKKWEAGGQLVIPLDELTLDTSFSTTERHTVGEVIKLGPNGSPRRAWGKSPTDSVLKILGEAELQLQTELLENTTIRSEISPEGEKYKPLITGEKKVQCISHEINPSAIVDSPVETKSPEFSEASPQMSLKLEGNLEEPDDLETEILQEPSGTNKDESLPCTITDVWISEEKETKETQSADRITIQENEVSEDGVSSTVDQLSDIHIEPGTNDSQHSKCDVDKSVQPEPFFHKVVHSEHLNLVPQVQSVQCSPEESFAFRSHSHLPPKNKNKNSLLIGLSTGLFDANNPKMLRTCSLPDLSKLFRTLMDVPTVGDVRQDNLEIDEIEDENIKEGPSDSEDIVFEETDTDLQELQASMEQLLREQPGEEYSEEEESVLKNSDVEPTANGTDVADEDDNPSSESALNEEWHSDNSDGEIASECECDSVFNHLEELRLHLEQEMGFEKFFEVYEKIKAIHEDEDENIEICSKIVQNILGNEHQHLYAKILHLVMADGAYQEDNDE
Summary of the method: as §1

LTK (TYK1) = molecular target: T5, LTK (TYK1) (Homo sapiens, UniProt P29376)
T5 construct: purchased Thermo Fisher Scientific
Summary of the method: as §1

T2 sequence (Q02763 23-1124): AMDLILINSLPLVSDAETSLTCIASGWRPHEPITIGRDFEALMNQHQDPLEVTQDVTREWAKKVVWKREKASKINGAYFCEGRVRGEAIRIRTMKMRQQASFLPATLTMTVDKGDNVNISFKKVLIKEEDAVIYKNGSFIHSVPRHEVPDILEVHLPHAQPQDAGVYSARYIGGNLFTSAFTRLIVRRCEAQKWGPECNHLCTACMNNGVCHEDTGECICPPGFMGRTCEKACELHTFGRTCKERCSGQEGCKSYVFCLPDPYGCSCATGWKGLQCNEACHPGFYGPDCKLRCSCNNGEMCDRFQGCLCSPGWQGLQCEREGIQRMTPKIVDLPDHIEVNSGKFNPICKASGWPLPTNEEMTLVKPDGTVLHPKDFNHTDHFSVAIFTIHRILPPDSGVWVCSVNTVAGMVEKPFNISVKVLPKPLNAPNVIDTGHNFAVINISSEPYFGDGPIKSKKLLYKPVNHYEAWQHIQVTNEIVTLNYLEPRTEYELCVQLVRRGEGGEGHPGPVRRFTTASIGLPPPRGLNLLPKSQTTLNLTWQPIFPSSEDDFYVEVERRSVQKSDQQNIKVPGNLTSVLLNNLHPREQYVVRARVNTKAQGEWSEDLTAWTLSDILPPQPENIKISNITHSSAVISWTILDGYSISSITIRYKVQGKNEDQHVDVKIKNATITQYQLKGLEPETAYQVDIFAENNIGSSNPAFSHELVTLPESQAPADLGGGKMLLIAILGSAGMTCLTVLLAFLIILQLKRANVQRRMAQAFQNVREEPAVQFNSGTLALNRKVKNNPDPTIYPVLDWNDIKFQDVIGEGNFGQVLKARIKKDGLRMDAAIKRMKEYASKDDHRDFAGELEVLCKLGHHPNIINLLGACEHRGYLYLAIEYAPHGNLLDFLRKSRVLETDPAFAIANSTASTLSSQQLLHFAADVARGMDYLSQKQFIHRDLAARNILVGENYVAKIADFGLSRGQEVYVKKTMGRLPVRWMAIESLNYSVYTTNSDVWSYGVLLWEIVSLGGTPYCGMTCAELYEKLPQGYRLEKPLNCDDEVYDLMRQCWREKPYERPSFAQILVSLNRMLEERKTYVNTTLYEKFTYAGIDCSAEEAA
T5 sequence (P29376 17-864): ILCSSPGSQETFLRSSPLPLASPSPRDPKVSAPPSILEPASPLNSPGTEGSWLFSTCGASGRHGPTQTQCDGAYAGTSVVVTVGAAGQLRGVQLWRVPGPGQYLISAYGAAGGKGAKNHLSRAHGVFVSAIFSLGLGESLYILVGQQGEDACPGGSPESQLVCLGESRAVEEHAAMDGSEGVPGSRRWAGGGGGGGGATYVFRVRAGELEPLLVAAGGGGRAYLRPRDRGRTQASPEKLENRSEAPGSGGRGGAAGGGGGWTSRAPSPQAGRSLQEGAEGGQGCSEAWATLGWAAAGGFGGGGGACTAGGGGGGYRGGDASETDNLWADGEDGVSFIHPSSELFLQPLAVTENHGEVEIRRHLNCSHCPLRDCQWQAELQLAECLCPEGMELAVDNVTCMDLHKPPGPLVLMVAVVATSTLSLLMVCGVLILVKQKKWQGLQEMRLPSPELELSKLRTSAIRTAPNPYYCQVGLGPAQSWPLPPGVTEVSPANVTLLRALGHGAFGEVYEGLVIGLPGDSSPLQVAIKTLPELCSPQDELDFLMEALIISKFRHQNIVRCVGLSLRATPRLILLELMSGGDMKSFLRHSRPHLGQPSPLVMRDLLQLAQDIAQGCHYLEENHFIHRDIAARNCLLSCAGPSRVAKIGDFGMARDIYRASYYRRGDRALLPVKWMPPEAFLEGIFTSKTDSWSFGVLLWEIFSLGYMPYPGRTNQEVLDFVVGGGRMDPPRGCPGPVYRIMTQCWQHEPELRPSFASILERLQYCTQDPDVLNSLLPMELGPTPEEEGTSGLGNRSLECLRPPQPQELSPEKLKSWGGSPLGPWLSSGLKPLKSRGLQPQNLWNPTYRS
T1 sequence (Q5S007 970-2527 G2019S limits assumed): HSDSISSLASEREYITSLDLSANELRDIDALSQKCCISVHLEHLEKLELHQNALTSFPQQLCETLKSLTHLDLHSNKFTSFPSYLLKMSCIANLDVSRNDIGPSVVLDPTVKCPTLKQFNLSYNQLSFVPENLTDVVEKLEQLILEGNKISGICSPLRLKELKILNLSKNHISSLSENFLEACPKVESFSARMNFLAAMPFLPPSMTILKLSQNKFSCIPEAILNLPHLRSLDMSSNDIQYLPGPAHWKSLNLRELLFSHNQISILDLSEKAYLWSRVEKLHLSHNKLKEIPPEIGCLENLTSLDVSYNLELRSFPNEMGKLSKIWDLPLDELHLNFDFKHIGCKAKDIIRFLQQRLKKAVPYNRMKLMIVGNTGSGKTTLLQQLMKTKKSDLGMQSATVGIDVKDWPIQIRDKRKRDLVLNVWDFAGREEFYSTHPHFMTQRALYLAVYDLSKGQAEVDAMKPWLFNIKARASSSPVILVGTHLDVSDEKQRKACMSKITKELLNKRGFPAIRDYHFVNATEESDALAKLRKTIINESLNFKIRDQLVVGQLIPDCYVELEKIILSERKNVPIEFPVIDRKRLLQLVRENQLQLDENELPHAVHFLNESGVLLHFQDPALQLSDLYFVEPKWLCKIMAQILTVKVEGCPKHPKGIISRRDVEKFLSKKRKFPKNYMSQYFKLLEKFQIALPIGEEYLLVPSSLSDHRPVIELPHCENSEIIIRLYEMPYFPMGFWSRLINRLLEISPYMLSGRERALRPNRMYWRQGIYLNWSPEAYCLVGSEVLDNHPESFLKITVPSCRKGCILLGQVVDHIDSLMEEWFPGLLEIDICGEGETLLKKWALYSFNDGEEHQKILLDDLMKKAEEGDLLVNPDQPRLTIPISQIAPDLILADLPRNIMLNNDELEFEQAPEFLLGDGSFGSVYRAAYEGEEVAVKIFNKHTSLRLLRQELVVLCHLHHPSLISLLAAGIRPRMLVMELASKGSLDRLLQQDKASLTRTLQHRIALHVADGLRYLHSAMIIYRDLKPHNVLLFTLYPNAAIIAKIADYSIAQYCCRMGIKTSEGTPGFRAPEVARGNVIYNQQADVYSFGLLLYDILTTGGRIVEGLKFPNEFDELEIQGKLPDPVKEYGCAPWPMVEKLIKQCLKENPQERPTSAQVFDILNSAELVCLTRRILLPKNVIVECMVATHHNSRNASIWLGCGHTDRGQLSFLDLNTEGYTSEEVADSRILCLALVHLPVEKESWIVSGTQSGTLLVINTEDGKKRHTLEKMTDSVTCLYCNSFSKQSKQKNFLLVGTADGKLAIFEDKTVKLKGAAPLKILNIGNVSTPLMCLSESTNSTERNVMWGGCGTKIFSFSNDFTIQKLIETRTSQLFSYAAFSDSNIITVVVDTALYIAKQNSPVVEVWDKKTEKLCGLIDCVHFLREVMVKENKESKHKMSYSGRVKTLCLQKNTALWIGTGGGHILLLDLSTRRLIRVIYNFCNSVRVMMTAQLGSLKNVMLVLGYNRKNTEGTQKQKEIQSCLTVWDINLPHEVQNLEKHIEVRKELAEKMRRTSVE

| SMILES | inhibition at 1 µM (LRRK2 G2019S) [%] | inhibition at 10 µM (LRRK2 G2019S) [%] | inhibition at 1 µM (TEK (Tie2)) [%] | inhibition at 10 µM (TEK (Tie2)) [%] | inhibition at 1 µM (ADRBK2 (GRK3)) [%] | inhibition at 10 µM (ADRBK2 (GRK3)) [%] | inhibition at 1 µM (NEK1) [%] | inhibition at 10 µM (NEK1) [%] | inhibition at 1 µM (LTK (TYK1)) [%] | inhibition at 10 µM (LTK (TYK1)) [%] |
| --- | --- | --- | --- | --- | --- | --- | --- | --- | --- | --- |
| COc1ccc2c(c1OC)c(=O)n1c3ccc(O)cc3c3ccnc2c31 [MW01, 5-Hydroxy-10,11-dimethoxy-9H-benzo[c]indolo[3,2,1-ij][1,5]naphthyridin-9-one] | 90 | 93 | 19 | 5 | 0 | 5 | 23 | 58 | 19 | 44 |
| COc1ccc2cc3c(N)nn(C(=O)c4cccc(N(C)C)c4)c3nc2c1 [MW05, (3-Amino-7-methoxypyrazolo[3,4-b]quinolin-1-yl)-[3-(dimethylamino)phenyl]methanone] | -2 | 16 | -2 | 12 | 2 | -3 | -1 | 6 | 7 | -9 |

Reference: patent EP4467141A1, “PYRAZOLO-QUINOLINES AS SELECTIVE INHIBITORS OF GENOTOXIC STRESS-INDUCED IKK/NF- KB PATHWAYS FOR CANCER THERAPY” (Max-Delbrück-Centrum für Molekulare Medizin in der …, priority 2023, dated 2024)
